pIC50: −log10 of the molar value.
What follows are molecules tested on 80S14 (p21-deficient) cells (assay: Determination of selectivity of compounds for p21-/- cells: IC50 in 80S14 cells (SRB)). Conditions: 80S14 (p21-deficient) cells, 5 days at 37° C., SRB; read-out: IC50 for 80S14.
Type: cell-based, human
Method: • 1. 80S14 (p21-deficient) cells were cultured in RPMI 1640 medium (Gibco/Invitrogen Life technologies) supplemented with 10% fetal bovine serum (FBS, Gibco) and 10 μg/ml gentamycin (Gibco). Cells were maintained at 37° C. under 7% CO2. • 2. Cells were plated at 6×10^4/ml (0.2 ml/well; 12,000 cells/well) in 96-well microtiter plates (Falcon or Corning/Costar) and incubated at 37° C. overnight (18-24 hours). • 3. 2-5 μl of the test agent-[200 μg/ml stock in 20% DMSO/20 mM HEPES, pH 7.5 (Gibco)] was added to each well to achieve a final concentration of 2-5 μg/ml. Cells were incubated with the test compounds for 5 days at 37° C. • 4. Surviving cells were fixed with 50 μl 50% trichloroacetic acid (Sigma; 10% final concentration) for 1 hour at 4° C. • 5. Plates were rinsed twice with water (0.3 ml per wash using MRD8 robot), and allowed to dry. • 6. Sulforhodamine B (SRB) (Sigma; 0.4% in 1% acetic acid, 50 μl per well; MRD8 robot) was added and plates kept at room temperature for 10 minutes. • 7. Excess dye was removed by washing with 1% acetic acid (3 times, 0.3 ml per wash; MRD8 robot) and allowed to dry. • 8. The dye was solubilized in Tris base (Sigma; 10 mM, 150 μl per well). Plates were kept at room temperature for 30 minutes to allow the dye to diffuse. • 9. Absorbance was measured at 540 nm. • 10. The percentage of cells surviving drug treatment relative to control wells (no drug) was determined. • 11. The difference in % cell survival between the two cell lines was calculated. • 12. Compounds producing a difference score of >50 were considered to be selective for the p21-deficient cells and were evaluated further. Determination of Selectivity of Compounds for p21−/− Cells: • 1. 80S14 cells were cultured as described above. • 2. Cells were seeded in 96-well microtiter plates at 12,000 cells/well (either 0.15 ml/well of 8×10^4 cells/ml suspension, or 0.2 ml/well of 6×10^4 cells/ml suspension). Plates were incubated at 37° C. overnight (18-24 hours). • 3. Serial dilutions of the test agent were added to each well. Dilutions were prepared either in 40% DMSO/20% methanol/20 mM HEPES, pH 7.5 (Gibco) or directly in growth medium. One of two dose ranges were used: 5 pM to 50 μM or 170 pg/ml to 10 μg/ml. Cells were incubated with the test compounds for 5 days at 37° C. • 4. Surviving cells were fixed with 50 μl 50% trichloroacetic acid (Sigma; 10% final concentration) for 1 hour at 4° C. • 5. Plates were rinsed extensively in water, and allowed to dry. • 6. Sulforhodamine B (Sigma; 0.4% in 1% acetic acid, 70 μl per well) was added and plates kept at room temperature for 10 minutes. • 7. Excess dye was removed by washing 5 times with 1% acetic acid and plates were allowed to dry. • 8. The dye was solubilized in Tris base (Sigma; 10 mM, 150 μl per well). Plates were placed on a titer plate shaker (Lab Line Instruments) for 5 minutes to allow the dye to diffuse. • 9. Absorbance was measured at 560 nm.
10. The drug concentration which inhibits cell proliferation by 50% relative to untreated controls (IC50) was determined from cytotoxicity curves.

Molecule	pIC50
CCS(=O)(=O)Nc1cccc(-c2ccnc3c(C(=O)c4cccs4)cnn23)c1 [Example 21, N-{3-[-(thien-2-ylcarbonyl)pyrazolo[1,5-a]pyrimidin-7-yl]phenyl}ethanesulfonamide]	> 6.00
COC(=O)CCC(=O)Nc1cccc(-c2ccnc3c(C(=O)c4cccs4)cnn23)c1 [Example 35, methyl 4-oxo-4-({3-[3-(thien-2-ylcarbonyl)pyrazolo[1,5-a]pyrimidin-7-yl]phenyl}anmino)butanoate]	4.30 to 5.00
O=C(c1cccs1)c1cnn2c(-c3cccc(NC(=O)C(Cl)(Cl)Cl)c3)ccnc12 [Example 38, 2,2,2-trichloro-N-{3-[3-(thien-2-ylcarbonyl)pyrazolo[1,5-a]pyrimidin-7-yl]phenyl} acetamide]	5.00 to 6.00
CC12CCC(C(=O)Nc3cccc(-c4ccnc5c(C(=O)c6cccs6)cnn45)c3)(OC1=O)C2(C)C (centres unmarked) [Example 43]	> 6.00
COCCOCC(=O)Nc1cccc(-c2ccnc3c(C(=O)c4cccs4)cnn23)c1 [Example 49, 2-(2-methoxyethoxy)-N-{3-[3-(thien-2-ylcarbonyl)pyrazolo[1,5-a]pyrimidin-7-yl]phenyl} acetamide]	5.00 to 6.00
NCC(=O)Nc1cccc(-c2ccnc3c(C(=O)c4cccs4)cnn23)c1 [Example 59, N-1--{3-[3-(thien-2-ylcarbonyl)pyrazolo[1,5-a]pyrimidin-7-yl]phenyl}glycinamide]	4.30 to 5.00
C[C@H](N)C(=O)Nc1cccc(-c2ccnc3c(C(=O)c4cccs4)cnn23)c1 [Example 60, N-1-{3-[3-(thien-2-ylcarbonyl)pyrazolo[1,5-a]pyrimidin-7-yl]phenyl}-L-alaninamide]	5.00 to 6.00
CC(C)C[C@H](N)C(=O)Nc1cccc(-c2ccnc3c(C(=O)c4cccs4)cnn23)c1 [Example 61, N-1-{3-[3-(thien-2-ylcarbonyl)pyrazolo[1,5-a]pyrimidin-7-yl]phenyl}-L-leucinamide]	4.30 to 5.00
CC[C@H](C)[C@H](N)C(=O)Nc1cccc(-c2ccnc3c(C(=O)c4cccs4)cnn23)c1 [Example 62, N-1-{3-[3-(thien-2-ylcarbonyl)pyrazolo[1,5-a]pyrimidin-7-yl]phenyl}-L-isoleucinamide]	5.00 to 6.00
N[C@@H](CC1CCCCC1)C(=O)Nc1cccc(-c2ccnc3c(C(=O)c4cccs4)cnn23)c1 [Example 64, 3-cyclohexyl-N-1-{3-[3-(thien-2-ylcarbonyl)pyrazolo[1,5-a]pyrimidin-7-yl]phenyl}-L-alaninamide]	4.30 to 5.00
CC(C)[C@H](N)C(=O)Nc1cccc(-c2ccnc3c(C(=O)c4cccs4)cnn23)c1 [Example 65, N-1-{3-[3-(thien-2-ylcarbonyl)pyrazolo[1,5-a]pyrimidin-7-yl]phenyl}-L-valinamide]	5.00 to 6.00
O=C(COc1ccccc1)Nc1cccc(-c2ccnc3c(C(=O)c4cccs4)cnn23)c1 [Example 93, 2-phenoxy-N-{3-[3-(thien-2-ylcarbonyl)pyrazolo[1,5-a]pyrimidin-7-yl]pheriyl}acetamide]	5.00 to 6.00
CCCCCNC(=O)NCC(=O)Nc1cccc(-c2ccnc3c(C(=O)c4cccs4)cnn23)c1 [Example 118, N-2-[(pentylamino)carbonyl]-N-1-{3-[3-(thien-2-ylcarbonyl)pyrazolo[1,5-A]pyrimidin-7-yl]phenyl}glycinamide]	4.30 to 5.00
CCNC(=O)NCC(=O)Nc1cccc(-c2ccnc3c(C(=O)c4cccs4)cnn23)c1 [Example 119, N-2-[(ethylamino)carbonyl]-N-1-{3-[3-(thien-2-ylcarbonyl)pyrazolo[1,5-a]pyrimidin-7-1yl]phenyl}glycinamide]	5.00 to 6.00
O=C(CNC(=O)NC1CCCCC1)Nc1cccc(-c2ccnc3c(C(=O)c4cccs4)cnn23)c1 [Example 120, N-2-[(cyclohexylamino)carbonyl]-N-1-{3-[3-(thien-2-ylcarbonyl)pyrazolo[1,5-a]pyrimidin-7-yl]phenyl}glycinamide]	5.00 to 6.00

Same assay, conditions: Cellular activity in 80S14 (p21-deficient) cells, SRB; class symbols; read-out: IC50 for 80S14

Molecule	pIC50
3-(3,5-Dimethylphenyl)-7-{3-[2-(2-piperidin-1-ylethyl)-2H-tetrazol-5-yl]phenyl}pyrazolo[1,5-a]pyrimidine [Example 388]	5.00 to 6.00
3.5-Dinitro-N-{3-[3-(2-thienylcarbonyl)pyrazolo[1,5-a]pyrimidin-7-yl]phenyl}benzamide [Example 198]	4.30 to 5.00

Same assay, conditions: Homo sapiens, 80S14, 120 h, read-out: IC50 for 80S14 (μM)

Molecule	IC50
C=C(C)OC(=O)Nc1cccc(-c2ccnc3c(C(=O)c4cccs4)cnn23)c1 [Example 15, isopropenyl3-[3-(thien-2-ylcarbonyl)pyrazolo[1,5-a]pyrimidin-7-yl]phenylcarbamate]	< 1 µM

Same assay, conditions: Homo sapiens, 120 h; 80S14 (p21-deficient) cells, 5 days at 37° C., SRB; read-out: IC50 for 80S14

Molecule	pIC50
C[C@H](NC(=O)Nc1cccc(-c2ccnc3c(C(=O)c4cccs4)cnn23)c1)c1ccccc1 [Example 9, N-[(1S)-1-phenylethyl]-N′-{3-[3-(thien-2-ylcarbonyl)pyrazolo [1,5-a]pyrimidin-7-yl]phenyl}urea]	5.00 to 6.00
O=C(c1cccs1)c1cnn2c(-c3cccc(NC(=O)[C@@H]4CCCN4C(=O)C(F)(F)F)c3)ccnc12 [Example 41, N-{3-[3-(thien-2-ylcarbonyl)pyrazolo[1,5-a]pyrimidin-7-yl]phenyl}-1-(trifluoroacetyl)-L-prolinamide]	5.00 to 6.00
O=C(c1cccs1)c1cnn2c(-c3cccc(NC(=O)C45CC6CC(CC(C6)C4)C5)c3)ccnc12 [Example 42, N-{3-[3-(thien-2-ylcarbonyl)pyrazolo[1,5-a]pyrimidin-7-yl]phenyl} adamantane-1-carboxamide]	> 6.00
C#CCCC(=O)Nc1cccc(-c2ccnc3c(C(=O)c4cccs4)cnn23)c1 [Example 45, N-{3-[3-(thien-2-ylcarbonyl)pyrazolo[1,5-a]pyrimidin-7-yl]phenyl}pent-4-ynamide]	> 6.00
CC(=O)OCC(=O)Nc1cccc(-c2ccnc3c(C(=O)c4cccs4)cnn23)c1 [Example 48, 2-oxo-2-({3-[3-(thien-2-ylcarbonyl)pyrazolo[1,5-a]pyrimidin-7-yl]phenyl}amino)ethyl acetate]	5.00 to 6.00
O=C(Cc1cccs1)Nc1cccc(-c2ccnc3c(C(=O)c4cccs4)cnn23)c1 [Example 50, 2-thien-2-yl-N-{3-[3-(thien-2-ylcarbonyl)pyrazolo[1,5-a]pyrimidin-7-yl]phenyl}acetamide]	> 6.00
O=C(c1cccs1)c1cnn2c(-c3cccc(NC(=O)[C@@H]4CCCN4)c3)ccnc12 [Example 67, N-{3-[3-(thien-2-ylcarbonyl)pyrazolo[1,5-a]pyrimidin-7-yl]phenyl}-L-prolinamide]	5.00 to 6.00
N[C@H](C(=O)Nc1cccc(-c2ccnc3c(C(=O)c4cccs4)cnn23)c1)C1CCCCC1 [Example 68, (2S)-2-amino-2-cyclohexyl-N-{3-[3-(thien-2-ylcarbonyl)pyrazolo[1,5-a]pyrimidin-7-yl]phenyl}ethanamide]	5.00 to 6.00
O=C(Nc1cccc(-c2ccnc3c(C(=O)c4cccs4)cnn23)c1)c1ccc(Cl)cc1 [Example 71, 4-chloro-N-{3-[3-(thien-2-ylcarbonyl)pyrazolo[1,5-a]pyrimidin-7-yl]phenyl}benzamide]	5.00 to 6.00
CC(C)(C)C(=O)NCC(=O)Nc1cccc(-c2ccnc3c(C(=O)c4cccs4)cnn23)c1 [Example 114, 2,2-dimethyl-N-[2-oxo-2-({3-[3-(thien-2-ylcarbonyl)pyrazolo[1,5-a]pyrimidin-7-yl]phenyl}amino)ethyl]propanamide]	5.00 to 6.00
O=C(CNC(=O)C12CC3CC(CC(C3)C1)C2)Nc1cccc(-c2ccnc3c(C(=O)c4cccs4)cnn23)c1 [Example 116, N-[2-oxo-2-({3-[3-(thien-2-ylcarbonyl)pyrazolo[1,5-a]pyrimidin-7-yl]phenyl}amino)ethyl] adamantane-1-carboxamide]	5.00 to 6.00

Reference: patent publication US20060063785A1, “Substituted pyrazolo[1,5-a] pyrimidines and process for making same” (priority 2004, published 2006)
